# Data from patent publication US20080090734A1, “DRUG SCREENING AND TARGET IDENTIFICATION USING SPR IMAGING OF TARGET PROTEIN ARRAYS” (The Trustees of California State University, priority 2006, published 2008).
# Legend:
# Assay in all cases: Antibiotic susceptibility profile
# Assay type in all cases: cell-based, Acinetobacter baumannii
# Parameters in all cases: key: Resistance; Intermediate; Susceptible
# [1] = tested on: A. baumannii clinical isolate LAC 01
# Description: (§1) We obtained over thirty clinical isolates of A. baumannii from nosocomial infections in New York City and Los Angeles. […] Only antibiotics with breakpoints for A. baumannii were used. […] Isolates LA 01 to 20 were acquired from Los Angels County while NY-A to NY-H were obtained from New York City.
# (§2) Antibiotic susceptibility profiles of clinical isolates of A. baumannii and reference strains. R, I, and S denote Resistance, Intermediate and Susceptible, respectively. Genetic Profiling of Clinical Isolates of A. baumannii
# [2] = tested on: A. baumannii reference strain SDF
# Description: as §1, §2
# [3] = tested on: A. baumannii clinical isolate LAC 16
# Description: as §1, §2
# [4] = tested on: A. baumannii clinical isolate LAC 17
# Description: as §1, §2
# [5] = tested on: A. baumannii clinical isolate LAC 14
# Description: as §1, §2
# [6] = tested on: A. baumannii clinical isolate NY D
# Description: as §1, §2
# [7] = tested on: A. baumannii clinical isolate LAC 10
# Description: as §1, §2
# [8] = tested on: A. baumannii clinical isolate LAC 03
# Description: as §1, §2
# [9] = tested on: A. baumannii clinical isolate LAC 18
# Description: as §1, §2
# [10] = tested on: A. baumannii reference strain 15839; conditions: strain 15839 (ATCC)
# Description: as §1, §2
# [11] = tested on: A. baumannii clinical isolate LAC 06
# Description: as §1, §2
# [12] = tested on: A. baumannii clinical isolate LAC 15
# Description: as §1, §2
# [13] = tested on: A. baumannii clinical isolate NY B
# Description: as §1, §2
# [14] = tested on: A. baumannii reference strain AYE
# Description: as §1, §2
# [15] = tested on: A. baumannii clinical isolate NY A
# Description: as §1, §2
# [16] = tested on: A. baumannii clinical isolate LAC 19
# Description: as §1, §2
# [17] = tested on: A. baumannii clinical isolate LAC 11
# Description: as §1, §2
# [18] = tested on: A. baumannii clinical isolate NY F
# Description: as §1, §2
# [19] = tested on: A. baumannii clinical isolate LAC 04
# Description: as §1, §2
# [20] = tested on: A. baumannii clinical isolate LAC 20
# Description: as §1, §2
# [21] = tested on: A. baumannii reference strain 19606; conditions: strain 19606 (ATCC)
# Description: as §1, §2
# [22] = tested on: A. baumannii clinical isolate LAC 09
# Description: as §1, §2
# [23] = tested on: A. baumannii clinical isolate LAC 02
# Description: as §1, §2
# [24] = tested on: A. baumannii clinical isolate LAC 08
# Description: as §1, §2
# [25] = tested on: A. baumannii clinical isolate NY E
# Description: as §1, §2
# [26] = tested on: A. baumannii reference strain 17978; conditions: strain 17978 (ATCC)
# Description: as §1, §2
# [27] = tested on: A. baumannii clinical isolate LAC 13
# Description: as §1, §2
# [28] = tested on: A. baumannii clinical isolate LAC 07
# Description: as §1, §2
# [29] = tested on: A. baumannii clinical isolate NY G
# Description: as §1, §2
# [30] = tested on: A. baumannii clinical isolate LAC 12
# Description: as §1, §2
# [31] = tested on: A. baumannii clinical isolate NY C
# Description: as §1, §2
# [32] = tested on: A. baumannii clinical isolate LAC 05
# Description: as §1, §2
# [33] = tested on: A. baumannii clinical isolate NY H
# Description: as §1, §2
Compound,Antibiotic susceptibility [1],Antibiotic susceptibility [2],Antibiotic susceptibility [3],Antibiotic susceptibility [4],Antibiotic susceptibility [5],Antibiotic susceptibility [6],Antibiotic susceptibility [7],Antibiotic susceptibility [8],Antibiotic susceptibility [9],Antibiotic susceptibility [10],Antibiotic susceptibility [11],Antibiotic susceptibility [12],Antibiotic susceptibility [13],Antibiotic susceptibility [14],Antibiotic susceptibility [15],Antibiotic susceptibility [16],Antibiotic susceptibility [17],Antibiotic susceptibility [18],Antibiotic susceptibility [19],Antibiotic susceptibility [20],also measured
"CN(C)[C@@H]1C(O)=C(C(N)=O)C(=O)[C@@]2(O)C(O)=C3C(=O)c4c(O)cccc4[C@@](C)(O)[C@H]3C[C@@H]12 [TET, Tetracycline]",R,I,I,R,R,R,R,R,R,R,R,R,R,R,I,I,R,R,I,R,Antibiotic susceptibility [21]: I; Antibiotic susceptibility [22]: R; Antibiotic susceptibility [23]: R; Antibiotic susceptibility [24]: R; Antibiotic susceptibility [25]: R; Antibiotic susceptibility [26]: S; Antibiotic susceptibility [27]: R; Antibiotic susceptibility [28]: R; Antibiotic susceptibility [29]: R; Antibiotic susceptibility [30]: R; Antibiotic susceptibility [31]: R; Antibiotic susceptibility [32]: R; Antibiotic susceptibility [33]: R
"C[C@H]1c2cccc(O)c2C(=O)C2=C(O)[C@]3(O)C(=O)C(C(N)=O)=C(O)[C@@H](N(C)C)[C@@H]3[C@@H](O)[C@@H]21 [DOX, Doxycycline]",S,S,S,S,R,S,S,S,S,R,S,S,R,S,S,S,R,S,S,S,Antibiotic susceptibility [21]: S; Antibiotic susceptibility [22]: S; Antibiotic susceptibility [23]: S; Antibiotic susceptibility [24]: S; Antibiotic susceptibility [25]: R; Antibiotic susceptibility [26]: S; Antibiotic susceptibility [27]: R; Antibiotic susceptibility [28]: S; Antibiotic susceptibility [29]: R; Antibiotic susceptibility [30]: R; Antibiotic susceptibility [31]: S; Antibiotic susceptibility [32]: S; Antibiotic susceptibility [33]: S
"CO/N=C(\C(=O)N[C@@H]1C(=O)N2C(C(=O)[O-])=C(C[N+]3(C)CCCC3)CS[C@H]12)c1csc(N)n1 [FEP, Cefepime]",R,I,R,R,R,R,R,R,R,I,S,R,R,R,I,R,R,R,I,R,Antibiotic susceptibility [21]: I; Antibiotic susceptibility [22]: R; Antibiotic susceptibility [23]: R; Antibiotic susceptibility [24]: I; Antibiotic susceptibility [25]: R; Antibiotic susceptibility [26]: S; Antibiotic susceptibility [27]: R; Antibiotic susceptibility [28]: R; Antibiotic susceptibility [29]: R; Antibiotic susceptibility [30]: R; Antibiotic susceptibility [31]: R; Antibiotic susceptibility [32]: I; Antibiotic susceptibility [33]: R
"CO/N=C(\C(=O)N[C@@H]1C(=O)N2C(C(=O)O)=C(COC(C)=O)CS[C@H]12)c1csc(N)n1 [CTX, Cefotaxime]",R,S,R,R,R,R,R,R,R,R,R,R,R,R,R,R,R,R,R,R,Antibiotic susceptibility [21]: I; Antibiotic susceptibility [22]: R; Antibiotic susceptibility [23]: R; Antibiotic susceptibility [24]: I; Antibiotic susceptibility [25]: R; Antibiotic susceptibility [26]: S; Antibiotic susceptibility [27]: R; Antibiotic susceptibility [28]: R; Antibiotic susceptibility [29]: R; Antibiotic susceptibility [30]: R; Antibiotic susceptibility [31]: R; Antibiotic susceptibility [32]: I; Antibiotic susceptibility [33]: R
